Results from BigSolDB 2.1.

COC1CCC2(CC1)NC(=O)C(c1cc(C)ccc1C)=C2O (stereo not given)
solubility (mole fraction)
Settings	288.15 K	293.15 K	298.15 K	303.15 K	308.15 K	313.15 K	318.15 K	323.15 K	328.15 K
in acetonitrile	0.000317	0.000345	0.000375	0.000463	0.00057	0.000681	0.000791	0.000923	0.0011
in ethanol	0.00255	0.00276	0.00302	0.00341	0.00392	0.00447	0.00513	0.00596	0.00681
in methanol	0.00339	0.00379	0.00431	0.00473	0.00528	0.00589	0.00656	0.00735	0.00832
in n-propanol	0.00252	0.00303	0.00348	0.00402	0.00453	0.00518	0.00603	0.00697	0.00799
in water	1.96e-06	3.14e-06	4.08e-06	5.12e-06	6.15e-06	7.28e-06	8.43e-06	9.14e-06	1.05e-05
